Assay results reported in US11845747B2, “Ester and carbonate pyrimidine compounds as JAK kinase inhibitors” (priority 2019, dated 2023).
Converted amounts (≈) assume the structure as drawn.

Columns and labels:
[1] = test system: IL-2 stimulated STAT5 phosphorylation in Tall-1 human T cell line (JAK1/3); experiment: Inhibition of IL-2 stimulated pSTAT5 in Tall-1 T cells; assay type: cell-based; conditions: IL-2 300 ng/mL, AlphaLisa, read-out: Tall-1 IL2 pSTAT5 (pIC50) (converted)
Description: Assay 2: Inhibition of IL-2 Stimulated pSTAT5 in Tall-1 T Cells
The potency of test compounds for inhibition of interleukin-2 (IL-2) stimulated STATS phosphorylation was measured in the Tall-1 human T cell line (DSMZ) using AlphaLisa. Because IL-2 signals through JAK1/3, this assay provides a measure of JAK1/3 cellular potency.
Phosphorylated STAT5 was measured via the AlphaLISA SureFire Ultra pSTAT5 (Tyr694/699) kit (PerkinElmer). Human T cells from the Tall-1 cell line were cultured in a 37° C., 5% CO2 humidified incubator in RPMI (Life Technologies) supplemented with 15% Heat Inactivated Fetal Bovine Serum (FBS, Life Technologies), 2 mM Glutamax (Life Technologies), 25 mM HEPES (Life Technologies) and 1× Pen/Strep (Life Technologies). Compounds were serially diluted in DMSO and dispensed acoustically to empty wells. Assay media (phenol red-free DMEM (Life Technologies) supplemented with 10% FBS (ATCC)) was dispensed (4 μL/well) and plates shaken at 900 rpm for 10 mins. Cells were seeded at 45,000 cells/well in assay media (4 μL/well), and incubated at 37° C., 5% CO2 for 1 hour, followed by the addition of IL-2 (R&D Systems; final concentration 300 ng/mL) in pre-warmed assay media (4 μL) for 30 minutes. After cytokine stimulation, cells were lysed with 6 ul of 3× AlphaLisa Lysis Buffer (PerkinElmer) containing 1× PhosStop and Complete tablets (Roche). The lysate was shaken at 900 rpm for 10 minutes at room temperature (RT). Phosphorylated STAT5 was measured via the pSTAT5 AlphaLisa kit (PerkinElmer). Freshly prepared acceptor bead mixture was dispensed onto lysate (5 μL) under green filtered <100 lux light. Plates were shaken at 900 rpm for 2 mins, briefly spun down, and incubated for 2 hrs at RT in the dark. Donor beads were dispensed (5 μL) under green filtered <100 lux light. Plates were shaken at 900 rpm for 2 minutes, briefly spun down, and incubated overnight at RT in the dark. Luminescence was measured with excitation at 689 nm and emission at 570 nm using an EnVision plate r reader (PerkinElmer) under green filtered <100 lux light.
To determine the inhibitory potency of test compounds in response to IL-2, the average emission intensity of beads bound to pSTAT5 was measured in a human T cell line. IC50 values were determined from analysis of the inhibition curves of signal intensity versus compound concentration. Data are expressed as pIC50 (negative decadic logarithm IC50) values (mean±standard deviation).

physchem [2] = assay type: physicochemical; conditions: pH 7.4, aqueous buffer, thermodynamic from solid
Description: Assay 4: Aqueous Solubility Assay The purpose of this assay was to quantify the solubility of test compounds in pH 4 and pH 7.4 PBS buffers. The assay required 40 μL of 10 mM DMSO test compound solution per desired buffer in addition to 20 μL required to make a test standard. For example, to test a compound in both buffers, 100 μL (2*40 μL+20 μL) of 10 mM DMSO compound stock solution was required. The standard was created by diluting 20 μL of 10 mM DMSO compound stock solution into 180 μL of methanol and was shaken for five minutes to ensure solution uniformity. […] This 1,000 μM solution was run on an Agilent 1260 LC-MS system by injecting 2 μL in order to obtain the peak area. For the test solutions, 40 μL of 10 mM DMSO compound stock solution, per PBS buffer condition, were dried down into a powder overnight. Once in powder form, 400 μL of the desired PBS buffer was added to the powder and allowed to shake vigorously for four hours. The maximum theoretical concentration for this sample solution was 1,000 μM. After four hours of shaking, the samples were centrifuged for 10 minutes at 3,000 RPM before injecting 2 μL on the same Agilent 1260 LC-MS system to obtain the peak area. […]

physchem [3] = assay type: physicochemical; conditions: thermodynamic from solid
Description: Assay 5: Solubility Assay in Organic Excipients The purpose of this assay was to quantify the solubility of test compounds in different organic excipients such as diisopropyl adipate, medium chain triglycerides (MCT), propylene glycol, and polyethylene glycol. The assay required 80 μL of 100 mM DMSO test compound solution per desired excipient in addition to 40 μL required to make a test standard. For example, to test a compound in all five […]) of 100 mM DMSO compound stock solution was required. The standard was created by diluting 40 μL of 100 mM DMSO compound stock solution into 160 μL of methanol and was shaken for five minutes to ensure solution uniformity. […] This 20,000 μM solution was run on an Agilent 1260 LC-MS system by injecting 0.2 μL in order to obtain the peak area. For the test solutions, 80 μL of 100 mM DMSO compound stock solution, per excipient, were dried down into a powder overnight. Once in powder form, 400 μL of the desired excipient was added to the powder and allowed to shake vigorously for four hours. The maximum theoretical concentration for this sample solution was 20,000 μM. After four hours of shaking, the samples were centrifuged for 10 minutes at 3,000 RPM before injecting 0.2 μL on the same Agilent 1260 LC-MS system to obtain the peak area. […] In Table 3 below, A represents a value above 10, B represents a value between 5 and 10, C represents a value below 5.

[4] = oil or lipid, Solubility in MCT
[5] = organic solvent or mixture, Solubility in Diisopropyl adipate
[6] = organic solvent or mixture, Solubility in PEG400
[7] = organic solvent or mixture, Solubility in Propylene glycol
[8] = organic solvent or mixture, Solubility in Transcutol

SMILES	IC50 [1] [nM]	solubility at 4 h (physchem [2]) [µM]	solubility at 4 h (physchem [3]; [4]) [µg/mL]	solubility at 4 h (physchem [3]; [5]) [µg/mL]	solubility at 4 h (physchem [3]; [6]) [µg/mL]	solubility at 4 h (physchem [3]; [7]) [µg/mL]	solubility at 4 h (physchem [3]; [8]) [µg/mL]
CCS(=O)(=O)N1[C@@H]2CCC[C@H]1C[C@H](N(C)c1nc(COC(=O)C3CCOCC3)c(F)c(Nc3cc(C)[nH]n3)n1)C2 [Compound 7, (2-(((1R,3s,5S)-9-(ethylsulfonyl)-9-azabicyclo[3.3.1]nonan-3-yl)(methyl)amino)-5-fluoro-6-((5-methyl-1H-pyrazol-3-yl)amino)pyrimidin-4-yl)methyl tetrahydro-2H-pyran-4-carboxylate]	≤ 10	100 to 1000 (≈ 58 to 580 µg/mL)	< 5000	> 10000	> 10000	> 10000	–
CCCCC(=O)OCc1nc(N(C)[C@@H]2C[C@H]3CCC[C@@H](C2)N3S(=O)(=O)CC)nc(Nc2cc(C)[nH]n2)c1F [Compound 4, (2-(((1R,3s,5S)-9-(ethylsulfonyl)-9-azabicyclo[3.3.1]nonan-3-yl)(methyl)amino)-5-fluoro-6-((5-methyl-1H-pyrazol-3-yl)amino)pyrimidin-4-yl)methyl pentanoate]	≤ 10	50 to 100 (≈ 27.6 to 55.2 µg/mL)	< 5000	> 10000	> 10000	< 5000	> 10000
CCS(=O)(=O)N1[C@@H]2CCC[C@H]1C[C@H](N(C)c1nc(CO)c(F)c(Nc3cc(C)[nH]n3)n1)C2 [Compound M, (2-(((1R,3s,5S)-9-(ethylsulfonyl)-9-azabicyclo[3.3.1]nonan-3-yl)(methyl)amino)-5-fluoro-6-((5-methyl-1H-pyrazol-3-yl)amino)pyrimidin-4-yl)methanol]	≤ 10	10 to 50 (≈ 4.68 to 23.4 µg/mL)	< 5000	< 5000	< 5000	< 5000	> 10000
CCS(=O)(=O)N1[C@@H]2CCC[C@H]1C[C@H](N(C)c1nc(COC(=O)OC3CCOCC3)c(F)c(Nc3cc(C)[nH]n3)n1)C2 [Compound 9, (2-(((1R,3s,5S)-9-(ethylsulfonyl)-9-azabicyclo[3.3.1]nonan-3-yl)(methyl)amino)-5-fluoro-6-((5-methyl-1H-pyrazol-3-yl)amino)pyrimidin-4-yl)methyl (tetrahydro-2H-pyran-4-yl) carbonate]	≤ 10	100 to 1000 (≈ 59.6 to 596 µg/mL)	< 5000	> 10000	> 10000	> 10000	–
CCCC(=O)OCc1nc(N(C)[C@@H]2C[C@H]3CCC[C@@H](C2)N3S(=O)(=O)CC)nc(Nc2cc(C)[nH]n2)c1F [Compound 3, (2-(((1R,3s,5S)-9-(ethylsulfonyl)-9-azabicyclo[3.3.1]nonan-3-yl)(methyl)amino)-5-fluoro-6-((5-methyl-1H-pyrazol-3-yl)amino)pyrimidin-4-yl)methyl butyrate]	≤ 10	10 to 50 (≈ 5.38 to 26.9 µg/mL)	< 5000	> 10000	> 10000	> 10000	> 10000
CCS(=O)(=O)N1[C@@H]2CCC[C@H]1C[C@H](N(C)c1nc(COC(=O)OC(C)C)c(F)c(Nc3cc(C)[nH]n3)n1)C2 [Compound 8, (2-(((1R,3s,5S)-9-(ethylsulfonyl)-9-azabicyclo[3.3.1]nonan-3-yl)(methyl)amino)-5-fluoro-6-((5-methyl-1H-pyrazol-3-yl)amino)pyrimidin-4-yl)methyl isopropyl carbonate]	≤ 10	50 to 100 (≈ 27.7 to 55.4 µg/mL)	< 5000	> 10000	> 10000	< 5000	–
CCS(=O)(=O)N1[C@@H]2CCC[C@H]1C[C@H](N(C)c1nc(COC(=O)OC3CCCCC3)c(F)c(Nc3cc(C)[nH]n3)n1)C2 [Compound 6, cyclohexyl ((2-(((1R,3s,5S)-9-(ethylsulfonyl)-9-azabicyclo[3.3.1]nonan-3-yl)(methyl)amino)-5-fluoro-6-((5-methyl-1H-pyrazol-3-yl)amino)pyrimidin-4-yl)methyl) carbonate]	10 to 31.6	10 to 50 (≈ 5.94 to 29.7 µg/mL)	< 5000	> 10000	5000 to 10000 (≈ 8.42 to 16.8 mM)	5000 to 10000 (≈ 8.42 to 16.8 mM)	> 10000
CCC(=O)OCc1nc(N(C)[C@@H]2C[C@H]3CCC[C@@H](C2)N3S(=O)(=O)CC)nc(Nc2cc(C)[nH]n2)c1F [Compound 2, (2-(((1R,3s,5S)-9-(ethylsulfonyl)-9-azabicyclo[3.3.1]nonan-3-yl)(methyl)amino)-5-fluoro-6-((5-methyl-1H-pyrazol-3-yl)amino)pyrimidin-4-yl)methyl propionate]	≤ 10	10 to 50 (≈ 5.24 to 26.2 µg/mL)	< 5000	> 10000	> 10000	> 10000	> 10000
CCS(=O)(=O)N1[C@@H]2CCC[C@H]1C[C@H](N(C)c1nc(COC(C)=O)c(F)c(Nc3cc(C)[nH]n3)n1)C2 [Compound 1, (2-(((1R,3s,5S)-9-(ethylsulfonyl)-9-azabicyclo[3.3.1]nonan-3-yl)(methyl)amino)-5-fluoro-6-((5-methyl-1H-pyrazol-3-yl)amino)pyrimidin-4-yl)methyl acetate]	≤ 10	10 to 50	< 5000	> 10000	5000 to 10000	> 10000	> 10000
CCCCCCC(=O)OCc1nc(N(C)[C@@H]2C[C@H]3CCC[C@@H](C2)N3S(=O)(=O)CC)nc(Nc2cc(C)[nH]n2)c1F [Compound 5, (2-(((1R,3s,5S)-9-(ethylsulfonyl)-9-azabicyclo[3.3.1]nonan-3-yl)(methyl)amino)-5-fluoro-6-((5-methyl-1H-pyrazol-3-yl)amino)pyrimidin-4-yl)methyl heptanoate]	≤ 10	10 to 50 (≈ 5.8 to 29 µg/mL)	< 5000	> 10000	> 10000	5000 to 10000 (≈ 8.62 to 17.2 mM)	> 10000
